Data reported in patent US20040077676A1 (priority 2003, published 2004).

Key:
[1] = tested on: sciatic nerve crush; assay: Functional recovery in the rat sciatic nerve crush model (semi-quantitative behavioral score); format: in vivo; conditions: scale 0-4
Description: Nine 6-week-old male Sprague-Dawley rats were anesthetized with 2% halothane, the right sciatic nerve was exposed, and the nerve was crushed twice (for a total of 60 s using a No.7 Dumont jeweler's forceps) at the level of the hip. The crush site was marked by tying a sterile 9-0 suture through the epineurial sheath.
Compound (Ia) was dissolved in vehicle comprising 30% dimethylsulfoxide (DMSO):70% saline. Three axotomized rats received subcutaneous daily injections either Compound (Ia) (1 or 5 mg/kg) or an equivalent volume of vehicle (30% DMSO in saline) (5ml/kg)
Animals were examined daily until the day of perfusion (18 days). The following semi-quantitative scale was used to evaluate the functional recovery of the animals:
0: paralysis with the foot turned-out upon walking and the toes curved;
1: ability to right the foot and move the toes;
2: ability to constantly walk on the foot;
For the behavioral analysis, mean values for recovery of function were compared using one-way ANOVA followed by the Newman-Keuls multiple comparisons test for comparison of individual values. For the morphometric analysis, mean values for the number of axons were compared using one-way ANOVA followed by the Newman Keuls multiple comparisons test for comparison of individual values.

[2] = molecular target: FKBP12 (Homo sapiens, UniProt P62942); assay: Binding assay to FKBP12; conditions: in vitro
Description: The binding assay was performed according to a similar manner to that of Tamura, K., et al (Biochemical arid Biophysical Research Communications, Vol. 202, No. 1, 437-499, 1994).

[3] = tested on: Mixed lymphocyte reaction (MLR); assay: Mixed lymphocyte reaction (MLR); format: cell-based; conditions: for IC50: Lymphocyte, in vitro
Description: MLR test was performed according to a similar manner to that of U.S. Pat. No. 4,929,611

[4] = tested on: SH-SY5Y human neuroblastoma cells; assay: Neurite lengths in NGF-treated SH-SY5Y neuroblastoma cells; format: cell-based; conditions: NGF 10 ng/ml alone; SH-SY5Y cells at 168 hr; mean
Description: SH-SY5Y human neuroblastoma cells were maintained in DMEM medium (GIBCO) supplemented with 10% fetal calf serum (SIGMA), 50 I.U./ml of penicillin, and 50μg/ml streptomycin (GIBCO) at 37° C. in 7% CO2. Cells were plated in six-well plates at 15,000 cells/well and treated with 0.4 μM aphidicolin (SIGMA). […] Medium was changed at 96 h and replaced with fresh medium for an additional 72 h (total time, 168 h). Duplicate wells were run in all experiments and the data were averaged for each treatment group. Analysis of neurite lengths in SH-SY5Y neuroblastoma cells:
For analysis of process length, cells (20 fields per well) were randomly photographed at 168 h. Neurite lengths were measured on photographic prints using a Houston Instrument HI-PAD digitizing tablet connected to an IBM XT computer with appropriate software (Bioquant IV, R & M Biometrics, Nashville, Tenn.); only those processes greater than two-fold of the cell body length were measured. Data from identically treated wells were not different and were therefore combined.

[5] = tested on: Embryonic hippocampal neurons; assay: Neurite (axon) lengths in primary embryonic hippocampal neuron cultures; format: cell-based, rat; conditions: 10 nM, primary hippocampal cell cultures in rats at 72 hr, mean
Description: Embryonic hippocampal neurons were obtained from rat pups on embryonic day 18.5 (“El8.5”), according to Banker and Cowan (Brain Research, 1977, 126: 397425). Briefly, the hippocampal regions were removed, minced, and incubated in 100 I.U. papain at 37° C. for 45 min, and the cells were resuspended in complete neuronal medium: minimal essential medium without L-glutamine (GIBCO, Grand Island, NY), 1.5 ml/100 ml medium of high glucose minimal essential medium (GIBCO), 0.1 ml/100 ml medium of serum extender (Hito +Tm; Collaborative Research Inc, Lexington, Mass.), glutamine (GIBCO), 5% fetal calf serum (GIBCO). Cells were seeded onto coverslips (500 cells/coverslip) coated with poly-L-lysine. The coverslips were inverted onto dishes that had been precoated with a monolayer of cortical astrocytes. Hippocampal neurons (identified by their characteristic polarity and dendrites) were examined daily and randomly photographed (9-12 frames/coverslip) at 72 h. Axon (defined as the longest process) lengths were measured on photographic prints using a Houston Instrument HI-PAD digitizing tablet connected to an IBM XT computer with appropriate software (Bioquant IV, R & M Biometrics, Nashville, TN); only processes more than three-fold of the cell body length were measured. Data from identically treated coverslips (three or four per group) were not different and therefore were combined.

FKBP12, sequence (P62942 whole entry, species assumed): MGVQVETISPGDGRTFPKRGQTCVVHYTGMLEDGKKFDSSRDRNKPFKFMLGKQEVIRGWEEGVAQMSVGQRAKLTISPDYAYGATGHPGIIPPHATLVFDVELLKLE

With `CO[C@H]1C[C@@H](C)C/C(C)=C/C(CC(C)=O)C(=O)C[C@H](O)[C@@H](C)[C@@H](/C(C)=C/[C@@H]2CC[C@@H](O)[C@H](OC)C2)OC(=O)[C@@H]2CCCCN2C(=O)C(=O)[C@]2(O)OC1[C@@H](OC)C[C@H]2C` (stereo partly shown) [Compound (Ia)] as the molecule, how does the “Functional Score” value ([1]; 1 mg/kg s.c. daily, Day 15) read?
Its value is 2.58 ± 0.17.

What about the “Functional Score” value ([1]; 1 mg/kg s.c. daily, Day 16) of the same molecule?
The value was 2.83 ± 0.17.

What about the “Functional Score” value ([1]; 1 mg/kg s.c. daily, Day 17) of the same molecule?
The value was 3.08 ± 0.22.

And the “Functional Score” value ([1]; 5 mg/kg s.c. daily, Day 15)?
The value was 3.17 ± 0.08.

What about the “Functional Score” value ([1]; 5 mg/kg s.c. daily, Day 16) of the same molecule?
The value was 3.50 ± 0.00.

What about the “Functional Score” value ([1]; 5 mg/kg s.c. daily, Day 17) of the same molecule?
Its value is 3.50 ± 0.00.

What about the IC50 [2] of the same molecule?
Its IC50 is < 5 nM.

And the IC50 [3]?
Its IC50 is > 100 nM.

And the immunosuppressive activity ([3]; conclusion in words from MLR result)?
The immunosuppressive activity was “does not have immunosuppressive activity”.

For “NGF: nerve growth factor, used at 10 ng/ml to induce process outgrowth”, which “Neurite Lengths” value [4] is on record?
The value was 198.8 ± 8.991 μm.

With `C=CC[C@@H]1/C=C(\C)C[C@H](C)C[C@H](OC)[C@H]2O[C@@](O)(C(=O)C(=O)N3CCCC[C@H]3C(=O)O[C@H](/C(C)=C/[C@@H]3CC[C@@H](O)[C@H](OC)C3)[C@H](C)[C@@H](O)CC1=O)[C@H](C)C[C@@H]2OC` [Tacrolimus, tacrolimus] as the molecule, how does the “Neurite Lengths” value [5] read?
Its value is 423.4 ± 19.50 μm.

And the “Neurite Lengths” value ([5]; listed as tacrolimus)?
Its value is “no significant difference”.

And the IC50 [3]?
The IC50 was < 2 nM.
